Reference: PubChem BioAssay AID216 (DTP/NCI, 2004)
Values joined by “and” are separate entries in the source; they are usually repeats but may differ in a detail not shown here. Identical values can stand only once. Toxic doses and inconclusive results are not listed.

System: BDF1 mice, P288 leukemia ip, survival T/C
Experiment: NCI In Vivo Anticancer Drug Screen. Data for tumor model P288 Lymphocytic Leukemia (intraperitoneal) in B6D2F1 (BDF1) mice
Settings: endpoint: survival time, mean or median, higher = longer survival
Method: The antitumor activity of compounds was measured in mice bearing transplantable tumors. Survival or tumor size were measured and the results are expressed as the measurement made in the treated group (T) divided by the measurement made in the vehicle treated control group (C). The tumor model used in this assay is P288 Lymphocytic Leukemia (intraperitoneal) in B6D2F1 (BDF1) mice

[1] = dose: 2.0 mg/kg/injection, schedule: Q01DX010 (ip), vehicle: saline
[2] = dose: 4.0 mg/kg/injection, schedule: Q01DX010 (ip), vehicle: saline
[3] = dose: 8.0 mg/kg/injection, schedule: Q01DX010 (ip), vehicle: saline
[4] = dose: 16.0 mg/kg/injection, schedule: Q01DX010 (ip), vehicle: saline
[5] = dose: 1.95 mg/kg/injection, schedule: Q01DX Z (ip), vehicle: carboxymethylcellulose (CMC)
[6] = dose: 3.9 mg/kg/injection, schedule: Q01DX Z (ip), vehicle: carboxymethylcellulose (CMC)
[7] = dose: 7.8 mg/kg/injection, schedule: Q01DX Z (ip), vehicle: carboxymethylcellulose (CMC)
[8] = dose: 500.0 mg/kg/injection, schedule: Q01DX Z (ip), vehicle: saline
[9] = dose: 8.0 mg/kg/injection, schedule: Q01DX Z (ip), vehicle: saline

Question: What does the source list for `O=C1CCC(N2C(=O)c3ccccc3C2=O)C(=O)N1` (configuration not stated)?
Answer: T/C (dose: 18.75 mg/kg/injection, schedule: Q01DX Z (ip), vehicle: carboxymethylcellulose (CMC)): 91 % of control; T/C (dose: 37.5 mg/kg/injection, schedule: Q01DX Z (ip), vehicle: carboxymethylcellulose (CMC)): 94 % of control; T/C (dose: 75.0 mg/kg/injection, schedule: Q01DX Z (ip), vehicle: carboxymethylcellulose (CMC)): 97 % of control; T/C (dose: 150.0 mg/kg/injection, schedule: Q01DX Z (ip), vehicle: carboxymethylcellulose (CMC)): 101 % of control and 88 % of control; T/C (dose: 300.0 mg/kg/injection, schedule: Q01DX Z (ip), vehicle: carboxymethylcellulose (CMC)): 94 % of control; T/C (dose: 600.0 mg/kg/injection, schedule: Q01DX Z (ip), vehicle: carboxymethylcellulose (CMC)): 87 % of control

Question: How did the T/C (dose: 12.5 mg/kg/injection, schedule: Q01DX010 (ip), vehicle: saline) turn out when `COS(C)(=O)=O` was run?
Answer: 100 % of control

Question: And the T/C (dose: 12.5 mg/kg/injection, schedule: Q01DX Z (ip), vehicle: water)?
Answer: 109 % of control

Question: What about the T/C (dose: 25.0 mg/kg/injection, schedule: Q01DX010 (ip), vehicle: saline) of the same compound?
Answer: 100 % of control

Question: And the T/C (dose: 25.0 mg/kg/injection, schedule: Q01DX Z (ip), vehicle: water)?
Answer: 103 % of control

Question: And the T/C (dose: 50.0 mg/kg/injection, schedule: Q01DX010 (ip), vehicle: saline)?
Answer: 87 % of control

Question: What about the T/C (dose: 100.0 mg/kg/injection, schedule: Q01DX010 (ip), vehicle: saline) of the same compound?
Answer: 106 % of control

Question: What about the T/C (dose: 100.0 mg/kg/injection, schedule: Q01DX Z (ip), vehicle: water) of the same compound?
Answer: 97 % of control

Question: With `CC[C@H](c1ccc(O)cc1)[C@@H](CC)c1ccc(O)cc1` as the compound, how does the T/C (dose: 8.0 mg/kg/injection, schedule: Q01DX Z (sc), vehicle: steriod suspending solution) read?
Answer: 90 % of control

Question: And the T/C (dose: 16.0 mg/kg/injection, schedule: Q01DX Z (sc), vehicle: steriod suspending solution)?
Answer: 93 % of control

Question: And the T/C (dose: 31.0 mg/kg/injection, schedule: Q01DX Z (sc), vehicle: steriod suspending solution)?
Answer: 97 % of control

Question: And the T/C (dose: 62.5 mg/kg/injection, schedule: Q01DX Z (sc), vehicle: steriod suspending solution)?
Answer: 88 % of control and 98 % of control

Question: What about the T/C (dose: 125.0 mg/kg/injection, schedule: Q01DX Z (sc), vehicle: steriod suspending solution) of the same compound?
Answer: 90 % of control

Question: With `CS(=O)(=O)OCCN(CCOS(C)(=O)=O)c1ccc(N=O)cc1` as the compound, how does the T/C (dose: 0.5 mg/kg/injection, schedule: Q01DX010 (ip), vehicle: saline) read?
Answer: 121 % of control

Question: What about the T/C [1] of the same compound?
Answer: 90 % of control and 94 % of control

Question: Which T/C (dose: 0.31 mg/kg/injection, schedule: Q01DX Z (ip), vehicle: carboxymethylcellulose (CMC)) does the source give for `Nc1ncnc2c1ccn2C1OC(CO)C(O)C1O` (configuration not stated) here?
Answer: 108 % of control and 92 % of control

Question: What about the T/C (dose: 0.63 mg/kg/injection, schedule: Q01DX Z (ip), vehicle: carboxymethylcellulose (CMC)) of the same compound?
Answer: 112 % of control and 93 % of control

Question: And the T/C (dose: 1.25 mg/kg/injection, schedule: Q01DX Z (ip), vehicle: carboxymethylcellulose (CMC))?
Answer: 90 % of control

Question: What about the T/C (dose: 2.5 mg/kg/injection, schedule: Q01DX Z (ip), vehicle: carboxymethylcellulose (CMC)) of the same compound?
Answer: 106 % of control

Question: Which T/C (dose: 1.0 mg/kg/injection, schedule: Q01DX010 (ip), vehicle: saline) does the source give for `Nc1nc(=S)c2ncn(C3OC(CO)C(O)C3O)c2[nH]1` (configuration not stated) here?
Answer: 105 % of control

Question: And the T/C [1]?
Answer: 115 % of control

Question: And the T/C [2]?
Answer: 118 % of control and 120 % of control

Question: What about the T/C [3] of the same compound?
Answer: 112 % of control and 95 % of control

Question: What about the T/C [4] of the same compound?
Answer: 106 % of control

Question: What about the T/C (dose: 5.0 micrograms/kg/injection, schedule: Q01DX Z (ip), vehicle: carboxymethylcellulose (CMC)) of the same compound?
Answer: 105 % of control

Question: What about the T/C (dose: 10.0 micrograms/kg/injection, schedule: Q01DX Z (ip), vehicle: carboxymethylcellulose (CMC)) of the same compound?
Answer: 96 % of control

Question: And the T/C (dose: 20.0 micrograms/kg/injection, schedule: Q01DX Z (ip), vehicle: carboxymethylcellulose (CMC))?
Answer: 94 % of control

Question: What does the source list for `O=C(Nc1ccc(C2=NCCCN2)cc1)c1ccc(NC(=O)c2ccc(C3=NCCCN3)cc2)cc1`?
Answer: T/C (dose: 0.24 mg/kg/injection, schedule: Q01DX Z (ip), vehicle: carboxymethylcellulose (CMC)): 113 % of control; T/C (dose: 0.49 mg/kg/injection, schedule: Q01DX Z (ip), vehicle: carboxymethylcellulose (CMC)): 94 % of control; T/C (dose: 0.98 mg/kg/injection, schedule: Q01DX Z (ip), vehicle: carboxymethylcellulose (CMC)): 121 % of control; T/C (dose: 1.0 mg/kg/injection, schedule: Q01DX010 (ip), vehicle: other): 120 % of control; T/C [5]: 119 % of control; T/C (dose: 2.0 mg/kg/injection, schedule: Q01DX010 (ip), vehicle: other): 124 % of control; T/C [6]: 183 % of control; T/C (dose: 4.0 mg/kg/injection, schedule: Q01DX010 (ip), vehicle: other): 184 % of control and 237 % of control; T/C [7]: 245 % of control; T/C (dose: 8.0 mg/kg/injection, schedule: Q01DX010 (ip), vehicle: other): 237 % of control and 284 % of control; T/C (dose: 15.6 mg/kg/injection, schedule: Q01DX Z (ip), vehicle: carboxymethylcellulose (CMC)): 156 % of control; T/C (dose: 16.0 mg/kg/injection, schedule: Q01DX010 (ip), vehicle: other): 92 % of control; T/C (dose: 31.25 mg/kg/injection, schedule: Q01DX Z (ip), vehicle: carboxymethylcellulose (CMC)): 103 % of control

Question: What does the source list for `CC(=O)N(C)C`?
Answer: T/C (dose: 31.0 mg/kg/injection, schedule: Q01DX Z (ip), vehicle: saline): 103 % of control; T/C (dose: 125.0 mg/kg/injection, schedule: Q01DX Z (ip), vehicle: saline): 100 % of control; T/C (dose: 250.0 mg/kg/injection, schedule: Q01DX Z (ip), vehicle: saline): 93 % of control; T/C [8]: 88 % of control; T/C (dose: 2000.0 mg/kg/injection, schedule: Q01DX Z (ip), vehicle: saline): 88 % of control

Question: For `O=C(Nc1ccc(NC2=NCCN2)cc1)c1ccc(C(=O)Nc2ccc(NC3=NCCN3)cc2)cc1`, which T/C (dose: 0.5 mg/kg/injection, schedule: Q01DX Z (ip), vehicle: saline) is on record?
Answer: 97 % of control

Question: What about the T/C (dose: 1.0 mg/kg/injection, schedule: Q01DX Z (ip), vehicle: saline) of the same compound?
Answer: 109 % of control

Question: What about the T/C [1] of the same compound?
Answer: 157 % of control and 184 % of control

Question: What about the T/C (dose: 2.0 mg/kg/injection, schedule: Q01DX Z (ip), vehicle: saline) of the same compound?
Answer: 114 % of control

Question: What about the T/C [2] of the same compound?
Answer: 189 % of control and 194 % of control

Question: And the T/C (dose: 4.0 mg/kg/injection, schedule: Q01DX Z (ip), vehicle: saline)?
Answer: 152 % of control

Question: And the T/C [3]?
Answer: 247 % of control and 284 % of control

Question: And the T/C [9]?
Answer: 203 % of control

Question: And the T/C [4]?
Answer: 115 % of control

Question: And the T/C (dose: 32.0 mg/kg/injection, schedule: Q01DX Z (ip), vehicle: saline)?
Answer: 105 % of control

Question: With `c1ccc(CNc2ncnc3[nH]ncc23)cc1` as the compound, how does the T/C [5] read?
Answer: 91 % of control

Question: What about the T/C [6] of the same compound?
Answer: 97 % of control

Question: What about the T/C [7] of the same compound?
Answer: 90 % of control

Question: And the T/C [3]?
Answer: 121 % of control and 93 % of control

Question: And the T/C [4]?
Answer: 112 % of control and 114 % of control

Question: And the T/C (dose: 32.0 mg/kg/injection, schedule: Q01DX010 (ip), vehicle: saline)?
Answer: 118 % of control

Question: For `CCCNc1ncnc2[nH]ncc12`, which T/C (dose: 0.31 mg/kg/injection, schedule: Q01DX Z (ip), vehicle: water) is on record?
Answer: 94 % of control

Question: And the T/C (dose: 0.63 mg/kg/injection, schedule: Q01DX Z (ip), vehicle: water)?
Answer: 90 % of control

Question: What about the T/C (dose: 2.5 mg/kg/injection, schedule: Q01DX Z (ip), vehicle: water) of the same compound?
Answer: 108 % of control and 114 % of control

Question: What about the T/C (dose: 5.0 mg/kg/injection, schedule: Q01DX Z (ip), vehicle: water) of the same compound?
Answer: 112 % of control

Question: And the T/C (dose: 10.0 mg/kg/injection, schedule: Q01DX Z (ip), vehicle: water)?
Answer: 106 % of control and 91 % of control

Question: What about the T/C (dose: 20.0 mg/kg/injection, schedule: Q01DX Z (ip), vehicle: water) of the same compound?
Answer: 108 % of control

Question: And the T/C (dose: 40.0 mg/kg/injection, schedule: Q01DX Z (ip), vehicle: water)?
Answer: 103 % of control

Question: Which T/C [9] does the source give for `CN(C)CC(=O)c1ccc(O)c(O)c1` here?
Answer: 94 % of control

Question: And the T/C (dose: 16.0 mg/kg/injection, schedule: Q01DX Z (ip), vehicle: saline)?
Answer: 105 % of control

Question: What about the T/C [8] of the same compound?
Answer: 152 % of control

Question: What about the T/C (dose: 675.0 mg/kg/injection, schedule: Q01DX010 (ip), vehicle: saline) of the same compound?
Answer: 150 % of control
